Measured values from patent publication US9260467B2, “Sialic acid dimers” (priority 2011, dated 2016).

Target: T1, Siglec-2 (CD22) (Homo sapiens, UniProt P20273)
T1 sequence (P20273 20-847): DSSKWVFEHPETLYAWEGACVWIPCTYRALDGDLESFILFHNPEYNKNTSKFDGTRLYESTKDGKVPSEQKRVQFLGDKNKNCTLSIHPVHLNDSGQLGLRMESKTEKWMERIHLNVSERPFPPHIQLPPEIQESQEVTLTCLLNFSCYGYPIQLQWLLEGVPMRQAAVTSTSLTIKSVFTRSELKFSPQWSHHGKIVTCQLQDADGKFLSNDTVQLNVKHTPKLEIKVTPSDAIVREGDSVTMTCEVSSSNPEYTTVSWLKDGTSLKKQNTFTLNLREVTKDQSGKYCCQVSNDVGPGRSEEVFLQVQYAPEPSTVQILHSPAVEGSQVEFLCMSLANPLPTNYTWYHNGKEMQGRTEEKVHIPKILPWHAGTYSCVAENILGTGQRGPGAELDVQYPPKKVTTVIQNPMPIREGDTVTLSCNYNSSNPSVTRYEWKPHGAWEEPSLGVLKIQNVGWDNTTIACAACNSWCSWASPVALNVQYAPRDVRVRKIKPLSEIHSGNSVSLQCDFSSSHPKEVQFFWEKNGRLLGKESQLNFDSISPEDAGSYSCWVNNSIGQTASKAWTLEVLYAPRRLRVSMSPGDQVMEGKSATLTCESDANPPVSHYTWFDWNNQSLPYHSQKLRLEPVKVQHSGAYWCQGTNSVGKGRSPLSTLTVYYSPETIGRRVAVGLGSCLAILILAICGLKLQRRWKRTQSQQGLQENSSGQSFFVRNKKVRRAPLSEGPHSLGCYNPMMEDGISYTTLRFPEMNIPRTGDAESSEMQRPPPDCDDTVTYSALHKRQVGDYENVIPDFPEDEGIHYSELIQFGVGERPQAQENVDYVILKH
Assay: new affinity assay: displacement of biotinylated compound 155 from sialidase-treated Daudi cells, FACS with streptavidin-PE
Format: binding
Set-up: endogenous in cells; host or cells: Daudi (human B-cell lymphoma line)
Details: Table II; rIP values set relative to compound 38; Daudi cells, displacement of compound 155
Method: To determine the affinity of the compound of the formula (I), approximately 5×10^6 to 2×10^8 cells of the human B-cell lymphoma line “Daudi” were incubated with sialidase (A. ureafaciens) at 37° C. for 1 h (final concentration 0.1 unit/ml). […] Batches of 1-2×10^6 cells were transferred to sample vessels, and incubated on ice for 15 min with serial concentrations (10-fold dilutions, 1 mM to 1×10^−7 mM) of the substance under measurement (inhibitor). The reaction volume was 50 μl. Then 50 microliters of compound 155 (4-micromolar) were added, and incubation took place for 20 min Washing with FACS buffer (PBS, 0.1 BSA, 0.01% sodium azide) was followed by incubation with streptavidin-PE in the dark for 15 min, followed by washing and measurement of the bound amount of […] via the streptavidin-PE in the FACS. For the determination of 0% displacement of the compound 155, cells without inhibitor were measured. For the determination of 100% displacement, cells were measured without compound 155 and without inhibitor. For each assay, four substances and one reference were measured. The IC50 values determined in each assay were subsequently converted into values of rIP (relative Inhibitory Potency). […]

| Compound | rIP |
| --- | --- |
| CC(=O)N[C@H]1[C@H]([C@H](O)[C@H](O)CNC(=O)c2ccc(-c3ccccc3)cc2)O[C@@](OCCCSCCNC(=O)c2ccccc2-c2ccccc2C(=O)NCCSCCCO[C@]2(C(=O)[O-])C[C@H](O)[C@@H](NC(C)=O)[C@H]([C@H](O)[C@H](O)CNC(=O)c3ccc(-c4ccccc4)cc3)O2)(C(=O)[O-])C[C@@H]1O.[Na+].[Na+] [Compound 35] | 717 |
| CC(=O)N[C@H]1[C@H]([C@H](O)[C@H](O)CNC(=O)c2ccc(-c3ccccc3)cc2)O[C@@](OCCCSCCNCc2ccc(CNCCSCCCO[C@]3(C(=O)[O-])C[C@H](O)[C@@H](NC(C)=O)[C@H]([C@H](O)[C@H](O)CNC(=O)c4ccc(-c5ccccc5)cc4)O3)cc2)(C(=O)[O-])C[C@@H]1O.[Na+].[Na+] [Compound 52] | 31 |
| CC(=O)N[C@H]1[C@H]([C@H](O)[C@H](O)CNC(=O)c2ccc(-c3ccccc3)cc2)O[C@@](OCCCSCCC(=O)Nc2cccc(NC(=O)CCSCCCO[C@]3(C(=O)[O-])C[C@H](O)[C@@H](NC(C)=O)[C@H]([C@H](O)[C@H](O)CNC(=O)c4ccc(-c5ccccc5)cc4)O3)c2)(C(=O)[O-])C[C@@H]1O.[Na+].[Na+] [Compound 41] | 423 |
| CC(=O)N[C@H]1[C@H]([C@H](O)[C@H](O)Cn2cc(-c3ccccc3)nn2)O[C@@](OCCCSCCNC(=O)c2ccc(C(=O)NCCSCCCO[C@]3(C(=O)[O-])C[C@H](O)[C@@H](NC(C)=O)[C@H]([C@H](O)[C@H](O)Cn4cc(-c5ccccc5)nn4)O3)cc2)(C(=O)[O-])C[C@@H]1O.[Na+].[Na+] [Compound 95] | 6 |
| CC(=O)N[C@H]1[C@H]([C@H](O)[C@H](O)CNC(=O)c2ccc(-c3ccccc3)cc2)O[C@@](OCCCSCCNC(=O)c2ccc(C(=O)NCCSCCCO[C@]3(C(=O)[O-])C[C@H](OC(=O)c4ccccc4)[C@@H](NC(C)=O)[C@H]([C@H](O)[C@H](O)CNC(=O)c4ccc(-c5ccccc5)cc4)O3)cc2)(C(=O)[O-])C[C@@H]1OC(=O)c1ccccc1.[Na+].[Na+] [Compound 113] | 3522 |
| CC(=O)N[C@H]1[C@H]([C@H](O)[C@H](O)CNC(=O)c2ccc(-c3ccccc3)cc2)O[C@@](OCCCSCCNC(=O)c2ccc(C(=O)NCCSCCCO[C@]3(C(=O)[O-])C[C@H](O)[C@@H](NC(C)=O)[C@H]([C@H](O)[C@H](O)CNC(=O)c4ccc(-c5ccccc5)cc4)O3)nc2)(C(=O)[O-])C[C@@H]1O.[Na+].[Na+] [Compound 27] | 2990 |
| CC(=O)N[C@H]1[C@H]([C@H](O)[C@H](O)CNC(=O)c2ccc(-c3ccccc3)cc2)O[C@@](NC(=O)CCCCCNC(=O)c2ccc(C(=O)NCCCCCC(=O)N[C@]3(C(=O)[O-])C[C@H](O)[C@@H](NC(C)=O)[C@H]([C@H](O)[C@H](O)CNC(=O)c4ccc(-c5ccccc5)cc4)O3)cc2)(C(=O)[O-])C[C@@H]1O.[Na+].[Na+] [Compound 116] | <1 |
| CC(=O)N[C@H]1[C@H]([C@H](O)[C@H](O)CNC(=O)c2ccc(-c3ccccc3)cc2)O[C@@](OCCCSCCNC(=O)c2ccc(C(=O)NCCSCCCO[C@]3(C(=O)[O-])C[C@H](O)[C@@H](NC(C)=O)[C@H]([C@H](O)[C@H](O)CNC(=O)c4ccc(-c5ccccc5)cc4)O3)c3ccccc23)(C(=O)[O-])C[C@@H]1O.[Na+].[Na+] [Compound 34] | 899 |
| CC(=O)N[C@H]1[C@H]([C@H](O)[C@H](O)CNC(=O)c2ccc(-c3ccccc3)cc2)O[C@@](OCCCSCCNC(=O)Cc2ccc(CC(=O)NCCSCCCO[C@]3(C(=O)[O-])C[C@H](O)[C@@H](NC(C)=O)[C@H]([C@H](O)[C@H](O)CNC(=O)c4ccc(-c5ccccc5)cc4)O3)cc2)(C(=O)[O-])C[C@@H]1O.[Na+].[Na+] [Compound 28] | 129 |
| CC(=O)N[C@H]1[C@H]([C@H](O)[C@H](O)CNC(=O)c2ccc(-c3ccc(C)cc3)cc2)O[C@@](OCCCSCCNC(=O)c2ccc(C(=O)NCCSCCCO[C@]3(C(=O)[O-])C[C@H](O)[C@@H](NC(C)=O)[C@H]([C@H](O)[C@H](O)CNC(=O)c4ccc(-c5ccc(C)cc5)cc4)O3)cc2)(C(=O)[O-])C[C@@H]1O.[Na+].[Na+] [Compound 76] | 188 |
| CC(=O)N[C@H]1[C@H]([C@H](O)[C@H](O)CNC(=O)c2ccc(-c3ccccc3)cc2)O[C@@](OCCCSCCC(=O)Nc2c(C)c(C)c(NC(=O)CCSCCCO[C@]3(C(=O)[O-])C[C@H](O)[C@@H](NC(C)=O)[C@H]([C@H](O)[C@H](O)CNC(=O)c4ccc(-c5ccccc5)cc4)O3)c(C)c2C)(C(=O)[O-])C[C@@H]1O.[Na+].[Na+] [Compound 45] | 523 |
| CC(=O)N[C@H]1[C@H]([C@H](O)[C@H](O)CNc2c(NCc3ccccc3)c(=O)c2=O)O[C@@](OCCCSCCNC(=O)c2ccc(C(=O)NCCSCCCO[C@]3(C(=O)[O-])C[C@H](O)[C@@H](NC(C)=O)[C@H]([C@H](O)[C@H](O)CNc4c(NCc5ccccc5)c(=O)c4=O)O3)cc2)(C(=O)[O-])C[C@@H]1O.[Na+].[Na+] [Compound 134] | 70 |
| CC(=O)N[C@H]1[C@H]([C@H](O)[C@H](O)CNC(=O)c2ccc(C3CCCCC3)cc2)O[C@@](OCCCSCCNC(=O)c2ccc(C(=O)NCCSCCCO[C@]3(C(=O)[O-])C[C@H](O)[C@@H](NC(C)=O)[C@H]([C@H](O)[C@H](O)CNC(=O)c4ccc(C5CCCCC5)cc4)O3)cc2)(C(=O)[O-])C[C@@H]1O.[Na+].[Na+] [Compound 57] | 22 |
| CC(=O)N[C@H]1[C@H]([C@H](O)[C@H](O)CNC(=O)c2ccc(-c3ccccc3)cc2)O[C@@](OCCCSCCNC(=O)CC(=O)NCCSCCCO[C@]2(C(=O)[O-])C[C@H](O)[C@@H](NC(C)=O)[C@H]([C@H](O)[C@H](O)CNC(=O)c3ccc(-c4ccccc4)cc3)O2)(C(=O)[O-])C[C@@H]1O.[Na+].[Na+] [Compound 37] | 177 |
| CC(=O)N[C@H]1[C@H]([C@H](O)[C@H](O)CNC(=O)c2ccc(-c3ccccc3)cc2)O[C@@](OCCCSCCC(=O)NCCNC(=O)CCSCCCO[C@]2(C(=O)[O-])C[C@H](O)[C@@H](NC(C)=O)[C@H]([C@H](O)[C@H](O)CNC(=O)c3ccc(-c4ccccc4)cc3)O2)(C(=O)[O-])C[C@@H]1O.[Na+].[Na+] [Compound 46] | 290 |
| CC(=O)N[C@H]1[C@H]([C@H](O)[C@H](O)CNC(=O)c2ccc(-c3ccccc3)cc2)O[C@@](OCCCSCCC(=O)Nc2ccccc2NC(=O)CCSCCCO[C@]2(C(=O)[O-])C[C@H](O)[C@@H](NC(C)=O)[C@H]([C@H](O)[C@H](O)CNC(=O)c3ccc(-c4ccccc4)cc3)O2)(C(=O)[O-])C[C@@H]1O.[Na+].[Na+] [Compound 42] | 359 |
| CC(=O)N[C@H]1[C@H]([C@H](O)[C@H](O)CNC(=O)c2ccc(-c3ccccn3)cc2)O[C@@](OCCCSCCNC(=O)c2ccc(C(=O)NCCSCCCO[C@]3(C(=O)[O-])C[C@H](O)[C@@H](NC(C)=O)[C@H]([C@H](O)[C@H](O)CNC(=O)c4ccc(-c5ccccn5)cc4)O3)cc2)(C(=O)[O-])C[C@@H]1O.[Na+].[Na+] [Compound 77] | 95 |
| CC(=O)N[C@H]1[C@H]([C@H](O)[C@H](O)CNC(=O)c2ccc(-c3ccccc3)cc2)O[C@@](OCCCSCC(NC(=O)c2ccc(C(=O)NC(CSCCCO[C@]3(C(=O)[O-])C[C@H](O)[C@@H](NC(C)=O)[C@H]([C@H](O)[C@H](O)CNC(=O)c4ccc(-c5ccccc5)cc4)O3)C(=O)[O-])cc2)C(=O)[O-])(C(=O)[O-])C[C@@H]1O.[Na+].[Na+].[Na+].[Na+] (stereo partly drawn) [Compound 149] | 378 |
